Results from patent US20250282734A1 (Bayer Aktiengesellschaft, priority 2021, published 2025).
Like-named read-outs stand apart in the source and are kept apart here. Marks after values point to notes of the source that are not given here.

Columns and labels:
[1] = Hygroscopy, dynamic vapour sorption (DVS) isotherms (Example 15); format: physicochemical
Protocol: Water sorption isotherms were determined using a DVS Resolution gravimetric sorption analyzer (London, UK), or a DVS Intrinsic instrument (Surface measurement Systems). The sample was dried for 1000 minutes at 0% relative humidity (R.H.). Afterwards the dry weight was recorded. […] The equilibrium criterion for each relative humidity set point was 0.002% per minute relative mass change as a function of time.

[2] = Determination of exposure in rat after intragastric administration (Example 13); format: in vivo; details: for AUC(0-t): female, plasma, po, read-out: AUC(0-tlast); for AUC(0-t) / AUC(0-tlast)norm: free acid in rat plasma
Protocol: Determination of exposure after intragastric application of test compounds was performed in female conscious rats with a body weight of 0.2 kg (minimum) to 0.25 kg (maximum). The test compounds were applied as bolus via intragastric probe to unfed female rats in solution or suspension in the vehicle ethanol/solutol/water (v/v/v 10/40/50).
At the indicated timepoints between 8 min and 24 h after dosing, 150 μl blood were sampled via a catheter from the vena jugularis. The samples were treated with K-EDTA as anticoagulant and stored cooled until further processing (refrigerator, 4° C.). The samples were centrifuged (15 min, 3000 rpm), then an aliquot of 100 μL was taken from the supernatant (plasma), precipitated by addition of 400 μL cold acetonitrile or methanol (abs.) and frozen at −20° C. over night. The samples were centrifuged (15 min, 3000 rpm), then 150 μL of the clear supernatant were taken for analytical testing. Analytics were performed using an Agilent 1200 HPLC-system with LCMS/MS detection.
The applied dose of cholinate according to the invention was adjusted as compared to free acid according to the difference in molecular weight. The resulting equivalent doses were used for comparison.

[3] = Solubility free acid vs. salt, shake-flask method (Example 12); format: physicochemical
[4] = Dissolution profile, flow through cell in FeSSIF / FaSSIF (Example 16); format: physicochemical; details: 14 minutes, micronized
Protocol: Prior to the measurements, the samples were micronized using a jet mill (MC DECJET 30) under nitrogen, with a pressure of 4.5 Bar for the injector and 4.0 Bar grinding pressure.
Dissolution rates of the drug substance were then determined using a flow through cell (FTC) from Sotax. All experiments were conducted in triplicates.
Then, the respective medium (FaSSIF or FeSSIF) was pumped through the cell with a pump rate of 2 mL/min for a total time of 14 minutes, resulting in a total volume of 28 mL. This volume was collected in time increments of 2 minutes, leading to 7 collected fractions with 4 mL each. The drug substance concentration of each fraction was determined by HPLC (external standard).

[5] = Solubility of cholinate vs free acid and other salts, shake-flask method (Example 14); format: physicochemical
Protocol: Preparation of FaSSIF (Fasted State Simulated Intestinal Fluid) blank solution: 4.2 g NaOH, 44.7 g NaH2PO4*2 H2O, and 61.86 g NaCl were dissolved in approximately 9.5 L demineralized water. Then, the pH of this solution was adjusted to 6.50+/−0.05 using HCl or NaOH, respectively. In the last step, the final volume was adjusted to 10.0 L by the addition of demineralized water.
Preparation of the final FaSSIF solution: 4.48 g SIF (Simulated Intestinal Fluids) powder (provider: biorelevant.com, Product code: FFF01 (May 2022)) were dissolved in approximately 500 mL FaSSIF blank solution, then the final volume was adjusted to 2.0 L by the addition of FaSSIF blank solution. After 2 hours, the solution was considered to be ready to use and was used within 48 hours.
Preparation of FeSSIF (Fed State Simulated Intestinal Fluid) blank solution: 40.4 g NaOH, 118.74 g NaCl, and 82.4 mL glacial acetic acid were dissolved in approximately 9.5 L demineralized water. Then, the pH of this solution was adjusted to 5.00+/−0.05 using HCl or NaOH, respectively. In the last step, the final volume was adjusted to 10.0 L by the addition of demineralized water.
Preparation of the final FeSSIF solution: 22.4 g SIF powder (provider: biorelevant.com, Product code: FFF01 (May 2022)) were dissolved in approximately 500 mL FeSSIF blank solution, then the final volume was adjusted to 2.0 L by the addition of FeSSIF blank solution. The solution was considered to be ready to use immediately after manufacturing and was used within 48 hours.

N=C(N)NCCC[C@H](N)C(=O)O.O=C(O)c1cc(NC(=O)C2(c3ccc(C(F)(F)F)cc3F)CC2)ccc1-c1cnn(C2CCC2)c1 [Arginine Salt, Arginine salt of 2-(1-cyclobutyl-1H-pyrazol-4-yl)-5-[({1-[2-fluoro-4-(trifluoromethyl)phenyl]cyclopropyl}carbonyl)amino]benzoate]
Change in mass [%], Desorption ([1]; 0% Relative humidity): 31.74%
Change in mass [%], Sorption ([1]; 0% Relative humidity): 0.00%
Change in mass [%], Desorption ([1]; 10% Relative humidity): 20.17%
Change in mass [%], Sorption ([1]; 10% Relative humidity): 1.39%
Change in mass [%], Desorption ([1]; 20% Relative humidity): 12.15%
Change in mass [%], Sorption ([1]; 20% Relative humidity): 2.13%
Change in mass [%], Desorption ([1]; 30% Relative humidity): 10.78%
Change in mass [%], Sorption ([1]; 30% Relative humidity): 2.98%
Change in mass [%], Desorption ([1]; 40% Relative humidity): 10.09%
Change in mass [%], Sorption ([1]; 40% Relative humidity): 4.25%
Change in mass [%], Desorption ([1]; 50% Relative humidity): 9.59%
Change in mass [%], Sorption ([1]; 50% Relative humidity): 5.72%
Change in mass [%], Desorption ([1]; 60% Relative humidity): 9.10%
Change in mass [%], Sorption ([1]; 60% Relative humidity): 7.20%
Change in mass [%], Desorption ([1]; 70% Relative humidity): 6.12%
Change in mass [%], Sorption ([1]; 70% Relative humidity): 9.40%
Change in mass [%], Desorption ([1]; 80% Relative humidity): 4.54%
Change in mass [%], Sorption ([1]; 80% Relative humidity): 13.25%
Change in mass [%], Desorption ([1]; 90% Relative humidity): 2.87%
Change in mass [%], Sorption ([1]; 90% Relative humidity): 20.10%
Change in mass [%], Desorption ([1]; 95% Relative humidity): 1.60%
Change in mass [%], Sorption ([1]; 95% Relative humidity): 31.74%

O=C(O)c1cc(NC(=O)C2(c3ccc(C(F)(F)F)cc3F)CC2)ccc1-c1cnn(C2CCC2)c1 [free acid, 2-(1-cyclobutyl-1H-pyrazol-4-yl)-5-[({1-[2-fluoro-4-(trifluoromethyl)-phenyl]cyclopropyl}carbonyl)amino]benzoic acid]
AUC(0-t) ([2]; rat, 3 mg/kg, dose equiv. 3 mg/kg): 24 µg·h/mL
AUC(0-t) ([2]; rat, 30 mg/kg, dose equiv. 30 mg/kg): 149 µg·h/mL
AUC(0-t) ([2]; rat, 100 mg/kg, dose equiv. 100 mg/kg): 247 µg·h/mL
AUC(0-t) ([2]; rat, 150 mg/kg, dose equiv. 150 mg/kg): 225 µg·h/mL
AUC(0-tlast)norm ([2]; dose equiv. 3 mg/kg): 8.1 kg·h/L
AUC(0-tlast)norm ([2]; dose equiv. 30 mg/kg): 5 kg·h/L
AUC(0-tlast)norm ([2]; dose equiv. 100 mg/kg): 2.5 kg·h/L
AUC(0-tlast)norm ([2]; dose equiv. 150 mg/kg): 1.5 kg·h/L
Increase of plasma exposure of free acid with dose ([2]; rat, doses above 30 mg/kg): much less than dose-proportional increase of exposure
solubility ([3]; Acetone, 25° C.): 10100 mg/L
solubility ([3]; Acetonitrile, 25° C.): 1290 mg/L
solubility ([3]; Ethanol, 25° C.): 4260 mg/L
solubility ([3]; PEG 400, 25° C.): 6830 mg/L
solubility ([3]; Phosphate buffer pH 7, 25° C.): 87 mg/L
solubility ([3]; Solutol/Ethanol/Water (40/10/50 V/V/V), 25° C.): 1300 mg/L
solubility ([3]; Water, 25° C., stirred overnight): <1* mg/L
pH of the clear solution ([3]; solubility test in water, pH of water before stirring: 5.57): *pH of the clear solution: 4.6
Dissolution in FaSSIF, comparison in words ([4]; FaSSIF): dissolved slower
Dissolution in FeSSIF, comparison in words ([4]; FeSSIF): significantly slower
Change in mass [%], Desorption ([1]; 0% Relative humidity): 0.65%
Change in mass [%], Sorption ([1]; 0% Relative humidity): 0.06%
Change in mass [%], Desorption ([1]; 10% Relative humidity): 0.52%
Change in mass [%], Sorption ([1]; 10% Relative humidity): 0.08%
Change in mass [%], Desorption ([1]; 20% Relative humidity): 0.42%
Change in mass [%], Sorption ([1]; 20% Relative humidity): 0.10%
Change in mass [%], Desorption ([1]; 30% Relative humidity): 0.35%
Change in mass [%], Sorption ([1]; 30% Relative humidity): 0.12%
Change in mass [%], Desorption ([1]; 40% Relative humidity): 0.29%
Change in mass [%], Sorption ([1]; 40% Relative humidity): 0.14%
Change in mass [%], Desorption ([1]; 50% Relative humidity): 0.16%
Change in mass [%], Sorption ([1]; 50% Relative humidity): 0.17%
Change in mass [%], Desorption ([1]; 60% Relative humidity): 0.09%
Change in mass [%], Sorption ([1]; 60% Relative humidity): 0.20%
Change in mass [%], Desorption ([1]; 70% Relative humidity): 0.05%
Change in mass [%], Sorption ([1]; 70% Relative humidity): 0.23%
Change in mass [%], Desorption ([1]; 80% Relative humidity): 0.03%
Change in mass [%], Sorption ([1]; 80% Relative humidity): 0.29%
Change in mass [%], Desorption ([1]; 90% Relative humidity): 0.01%
Change in mass [%], Sorption ([1]; 90% Relative humidity): 0.44%
Change in mass [%], Desorption ([1]; 95% Relative humidity): 0.00%
Change in mass [%], Sorption ([1]; 95% Relative humidity): 0.65%

O=C([O-])c1cc(NC(=O)C2(c3ccc(C(F)(F)F)cc3F)CC2)ccc1-c1cnn(C2CCC2)c1.[K+] [Potassium salt, Potassium 2-(1-cyclobutyl-1H-pyrazol-4-yl)-5-[({1-[2-fluoro-4-(trifluoromethyl)phenyl]cyclopropyl}carbonyl)amino]benzoate]
solubility ([5]; Buffer pH 4.5, 25° C.): 5 mgfree acid/L
solubility ([5]; Buffer pH 7, 25° C.): 684 mgfree acid/L
solubility ([5]; Buffer pH 8, 25° C.): >11594 mgfree acid/L
solubility ([5]; FaSSIF (37° C.) (Fasted State Simulated Intestinal Fluid)): 781 mgfree acid/L
solubility ([5]; FeSSIF (37° C.) (Fed State Simulated Intestinal Fluid)): 24 mgfree acid/L
solubility ([5]; Water, 25° C.): 6425 mgfree acid/L
Change in mass [%], Desorption ([1]; 0% Relative humidity): 67.05%
Change in mass [%], Sorption ([1]; 0% Relative humidity): 1.84%
Change in mass [%], Desorption ([1]; 10% Relative humidity): 36.40%
Change in mass [%], Sorption ([1]; 10% Relative humidity): 3.33%
Change in mass [%], Desorption ([1]; 20% Relative humidity): 21.86%
Change in mass [%], Sorption ([1]; 20% Relative humidity): 4.12%
Change in mass [%], Desorption ([1]; 30% Relative humidity): 15.18%
Change in mass [%], Sorption ([1]; 30% Relative humidity): 5.53%
Change in mass [%], Desorption ([1]; 40% Relative humidity): 11.85%
Change in mass [%], Sorption ([1]; 40% Relative humidity): 8.59%
Change in mass [%], Desorption ([1]; 50% Relative humidity): 9.24%
Change in mass [%], Sorption ([1]; 50% Relative humidity): 11.39%
Change in mass [%], Desorption ([1]; 60% Relative humidity): 6.66%
Change in mass [%], Sorption ([1]; 60% Relative humidity): 14.10%
Change in mass [%], Desorption ([1]; 70% Relative humidity): 4.31%
Change in mass [%], Sorption ([1]; 70% Relative humidity): 17.79%
Change in mass [%], Desorption ([1]; 80% Relative humidity): 2.92%
Change in mass [%], Sorption ([1]; 80% Relative humidity): 24.21%
Change in mass [%], Desorption ([1]; 90% Relative humidity): 1.40%
Change in mass [%], Sorption ([1]; 90% Relative humidity): 37.54%
Change in mass [%], Desorption ([1]; 95% Relative humidity): 0.00%
Change in mass [%], Sorption ([1]; 95% Relative humidity): 67.05%
DVS Dm @ 30% R.H. (Sorption) ([1]; summarized results, 30% R.H.): 5.5%
DVS Dm @ 50% R.H. (Sorption) ([1]; summarized results, 50% R.H.): 11.4%
DVS Dm @ 80% R.H. (Sorption) ([1]; summarized results, 80% R.H.): 24.2%
